Assay results reported in the NIST ThermoML archive (doi:10.1016/j.jct.2009.03.010).
Numbers after ± are expanded uncertainties.

What was measured:
[1] = molar heat capacity at constant pressure; conditions: 101.33 kPa, Crystal
[2] = Crystal; DTA
[3] = Molar enthalpy of transition or fusion; conditions: Crystal; DSC

**Q.** What does the source list for `c1cc2ccc3ccc4ccc5ccc6ccc1c1c2c3c4c5c61` [coronene]?
**A.** molar heat capacity at constant pressure ([1]; 295 K, Small sample (50 mg) DSC): 312.97 ± 6.3 J/K/mol; molar heat capacity at constant pressure ([1]; 298.15 K, DSC): 317.46 ± 14 J/K/mol; molar heat capacity at constant pressure ([1]; 298.15 K, Small sample (50 mg) DSC): 317.17 ± 6.3 J/K/mol; molar heat capacity at constant pressure ([1]; 300 K, Small sample (50 mg) DSC): 318.97 ± 6.4 J/K/mol; molar heat capacity at constant pressure ([1]; 310 K, Small sample (50 mg) DSC): 333.99 ± 6.7 J/K/mol; molar heat capacity at constant pressure ([1]; 320 K, Small sample (50 mg) DSC): 344.5 ± 6.9 J/K/mol; molar heat capacity at constant pressure ([1]; 330 K, Small sample (50 mg) DSC): 355.32 ± 7.1 J/K/mol; molar heat capacity at constant pressure ([1]; 340 K, Small sample (50 mg) DSC): 366.43 ± 7.3 J/K/mol; molar heat capacity at constant pressure ([1]; 350 K, Small sample (50 mg) DSC): 373.94 ± 7.5 J/K/mol; molar heat capacity at constant pressure ([1]; 360 K, Small sample (50 mg) DSC): 383.85 ± 7.7 J/K/mol; molar heat capacity at constant pressure ([1]; 370 K, Small sample (50 mg) DSC): 394.66 ± 7.9 J/K/mol; molar heat capacity at constant pressure ([1]; 380 K, Small sample (50 mg) DSC): 405.18 ± 8.1 J/K/mol; molar heat capacity at constant pressure ([1]; 410 K, Small sample (50 mg) DSC): 417.19 ± 8.3 J/K/mol; molar heat capacity at constant pressure ([1]; 420 K, Small sample (50 mg) DSC): 422.3 ± 8.4 J/K/mol; molar heat capacity at constant pressure ([1]; 430 K, Small sample (50 mg) DSC): 435.51 ± 8.7 J/K/mol; molar heat capacity at constant pressure ([1]; 440 K, Small sample (50 mg) DSC): 439.12 ± 8.8 J/K/mol; molar heat capacity at constant pressure ([1]; 450 K, Small sample (50 mg) DSC): 447.82 ± 9 J/K/mol; molar heat capacity at constant pressure ([1]; 460 K, Small sample (50 mg) DSC): 453.83 ± 9.1 J/K/mol; molar heat capacity at constant pressure ([1]; 470 K, Small sample (50 mg) DSC): 463.44 ± 9.3 J/K/mol; molar heat capacity at constant pressure ([1]; 478 K, Small sample (50 mg) DSC): 470.65 ± 9.4 J/K/mol; Normal melting temperature [2]: 436 ± 1.6 °C; Molar enthalpy of transition or fusion [3]: 5.07 ± 0.359 kcal/mol
